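Abbreviation: GI50, concentration required for 50% inhibition of growth. TGI: concentration producing complete growth inhibition.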
Legend:
Assay in all cases: growth of human tumour cells (NCI), 384-well format
HCT-15 colon = system: HCT-15 colon
HL-60(TB) leukemia = system: HL-60(TB) leukemia
SF-268 CNS = system: SF-268 CNS
T-47D breast = system: T-47D breast
SN12C renal = system: SN12C renal
K-562 leukemia = system: K-562 leukemia
OVCAR-5 ovarian = system: OVCAR-5 ovarian
A498 renal = system: A498 renal
DU-145 prostate = system: DU-145 prostate
A549 NSCLC = system: A549 NSCLC
M14 melanoma = system: M14 melanoma
IGROV1 ovarian = system: IGROV1 ovarian
NCI/ADR-RES ovarian = system: NCI/ADR-RES ovarian
SK-MEL-28 melanoma = system: SK-MEL-28 melanoma
NCI-H460 NSCLC = system: NCI-H460 NSCLC
MDA-MB-468 breast = system: MDA-MB-468 breast
SF-295 CNS = system: SF-295 CNS
HCT-116 colon = system: HCT-116 colon
OVCAR-4 ovarian = system: OVCAR-4 ovarian
UACC-257 melanoma = system: UACC-257 melanoma
MOLT-4 leukemia = system: MOLT-4 leukemia
MDA-MB-435 melanoma = system: MDA-MB-435 melanoma
HS 578T breast = system: HS 578T breast
UACC-62 melanoma = system: UACC-62 melanoma
SK-OV-3 ovarian = system: SK-OV-3 ovarian
EKVX NSCLC = system: EKVX NSCLC
SNB-75 CNS = system: SNB-75 CNS
HCC-2998 colon = system: HCC-2998 colon
SF-539 CNS = system: SF-539 CNS
HT29 colon = system: HT29 colon
MCF7 breast = system: MCF7 breast
KM12 colon = system: KM12 colon
U251 glioblastoma = system: U251 glioblastoma
SK-MEL-5 melanoma = system: SK-MEL-5 melanoma
UO-31 renal = system: UO-31 renal
OVCAR-3 ovarian = system: OVCAR-3 ovarian
PC-3 prostate = system: PC-3 prostate
COLO 205 colon = system: COLO 205 colon
SNB-19 CNS = system: SNB-19 CNS
NCI-H322M lung = system: NCI-H322M lung
NCI-H522 lung = system: NCI-H522 lung
RPMI-8226 leukemia = system: RPMI-8226 leukemia
NCI-H226 lung = system: NCI-H226 lung
RXF 393 renal = system: RXF 393 renal
SW-620 colon = system: SW-620 colon
ACHN renal = system: ACHN renal
CCRF-CEM leukemia = system: CCRF-CEM leukemia
OVCAR-8 ovarian = system: OVCAR-8 ovarian
CAKI-1 renal = system: CAKI-1 renal
786-0 renal = system: 786-0 renal
BT-549 breast = system: BT-549 breast
NCI-H23 lung = system: NCI-H23 lung
TK-10 renal = system: TK-10 renal
HOP-92 NSCLC = system: HOP-92 NSCLC
LOX IMVI melanoma = system: LOX IMVI melanoma
HOP-62 NSCLC = system: HOP-62 NSCLC
MDA-MB-231 breast = system: MDA-MB-231 breast
MALME-3M melanoma = system: MALME-3M melanoma

In the case of `NS(=O)(=O)OC[C@H]1C[C@@H](Nc2ccnc3cc(-c4cccc(SC(F)(F)F)c4)nn23)[C@H](O)[C@@H]1O`, the GI50 (HCT-15 colon) is reported as 33.2 nM, the TGI (HCT-15 colon) is reported as 117 nM and the GI50 (HL-60(TB) leukemia) is reported as < 10 nM. For the same compound, the TGI (HL-60(TB) leukemia) was < 10 nM, the GI50 (SF-268 CNS) was < 10 nM and the TGI (SF-268 CNS) was < 10 nM. For the same compound, the GI50 (T-47D breast) was < 10 nM, the TGI (T-47D breast) was 12.4 nM and the GI50 (SN12C renal) was 21.4 nM. The TGI (SN12C renal) was 43.7 nM, the GI50 (K-562 leukemia) was < 10 nM and the TGI (K-562 leukemia) was < 10 nM. The GI50 (OVCAR-5 ovarian) was 12.8 nM, the TGI (OVCAR-5 ovarian) was 34.2 nM and the GI50 (A498 renal) was < 10 nM. For the same compound, the TGI (A498 renal) was 21.2 nM, the GI50 (DU-145 prostate) was < 10 nM and the TGI (DU-145 prostate) was 44.9 nM. The GI50 (A549 NSCLC) was 59.6 nM, the TGI (A549 NSCLC) was 191 nM and the GI50 (M14 melanoma) was 15.8 nM. The TGI (M14 melanoma) was 30.7 nM, the GI50 (IGROV1 ovarian) was 15.1 nM and the TGI (IGROV1 ovarian) was 30.1 nM. For the same compound, the GI50 (NCI/ADR-RES ovarian) was 129 nM, the TGI (NCI/ADR-RES ovarian) was 260 nM and the GI50 (SK-MEL-28 melanoma) was < 10 nM. The TGI (SK-MEL-28 melanoma) was < 10 nM, the GI50 (NCI-H460 NSCLC) was 147 nM and the TGI (NCI-H460 NSCLC) was 286 nM. The GI50 (MDA-MB-468 breast) was < 10 nM, the TGI (MDA-MB-468 breast) was < 10 nM and the GI50 (SF-295 CNS) was 48.1 nM. The TGI (SF-295 CNS) was 166 nM, the GI50 (HCT-116 colon) was < 10 nM and the TGI (HCT-116 colon) was 11.3 nM. The GI50 (OVCAR-4 ovarian) was 15.9 nM, the TGI (OVCAR-4 ovarian) was 29.9 nM and the GI50 (UACC-257 melanoma) was 14.7 nM. The TGI (UACC-257 melanoma) was 28.6 nM, the GI50 (MOLT-4 leukemia) was 12.9 nM and the TGI (MOLT-4 leukemia) was 26 nM. It also gave a GI50 (MDA-MB-435 melanoma) of 17.4 nM, a TGI (MDA-MB-435 melanoma) of 32.7 nM and a GI50 (HS 578T breast) of 14.2 nM. It also gave a TGI (HS 578T breast) of 28.4 nM, a GI50 (UACC-62 melanoma) of 17 nM and a TGI (UACC-62 melanoma) of 32.2 nM. The GI50 (SK-OV-3 ovarian) was 12.8 nM, the TGI (SK-OV-3 ovarian) was 25.9 nM and the GI50 (EKVX NSCLC) was 14 nM. For the same compound, the TGI (EKVX NSCLC) was 28 nM, the GI50 (SNB-75 CNS) was 19 nM and the TGI (SNB-75 CNS) was 34.4 nM. The GI50 (HCC-2998 colon) was 13.1 nM, the TGI (HCC-2998 colon) was 27.4 nM and the GI50 (SF-539 CNS) was < 10 nM. For the same compound, the TGI (SF-539 CNS) was < 10 nM, the GI50 (HT29 colon) was 94.7 nM and the TGI (HT29 colon) was 222 nM. It also gave a GI50 (MCF7 breast) of 11.5 nM, a TGI (MCF7 breast) of 31.2 nM and a GI50 (KM12 colon) of 25.5 nM. The TGI (KM12 colon) was 59.7 nM, the GI50 (U251 glioblastoma) was < 10 nM and the TGI (U251 glioblastoma) was < 10 nM. For the same compound, the GI50 (SK-MEL-5 melanoma) was < 10 nM, the TGI (SK-MEL-5 melanoma) was < 10 nM and the GI50 (UO-31 renal) was 20.5 nM. For the same compound, the TGI (UO-31 renal) was 42.1 nM, the GI50 (OVCAR-3 ovarian) was < 10 nM and the TGI (OVCAR-3 ovarian) was < 10 nM. The GI50 (PC-3 prostate) was 17.5 nM, the TGI (PC-3 prostate) was 32.4 nM and the GI50 (COLO 205 colon) was < 10 nM. For the same compound, the TGI (COLO 205 colon) was 14.9 nM, the GI50 (SNB-19 CNS) was < 10 nM and the TGI (SNB-19 CNS) was 20.7 nM. For the same compound, the GI50 (NCI-H322M lung) was 11.3 nM, the TGI (NCI-H322M lung) was 24.2 nM and the GI50 (NCI-H522 lung) was < 10 nM. For the same compound, the TGI (NCI-H522 lung) was < 10 nM, the GI50 (RPMI-8226 leukemia) was 202 nM and the TGI (RPMI-8226 leukemia) was 348 nM. For the same compound, the GI50 (NCI-H226 lung) was < 10 nM, the TGI (NCI-H226 lung) was < 10 nM and the GI50 (RXF 393 renal) was < 10 nM. For the same compound, the TGI (RXF 393 renal) was 18.4 nM, the GI50 (SW-620 colon) was 14.4 nM and the TGI (SW-620 colon) was 27.8 nM. The GI50 (ACHN renal) was 59 nM, the TGI (ACHN renal) was 190 nM and the GI50 (CCRF-CEM leukemia) was < 10 nM. For the same compound, the TGI (CCRF-CEM leukemia) was < 10 nM, the GI50 (OVCAR-8 ovarian) was < 10 nM and the TGI (OVCAR-8 ovarian) was 16.5 nM. The GI50 (CAKI-1 renal) was 18.9 nM, the TGI (CAKI-1 renal) was 36 nM and the GI50 ([…]-0 renal) was 18.7 nM. The TGI (786-0 renal) was 36.1 nM, the GI50 (BT-549 breast) was < 10 nM and the TGI (BT-549 breast) was 16.1 nM. It also gave a GI50 (NCI-H23 lung) of 19.3 nM, a TGI (NCI-H23 lung) of 51.3 nM and a GI50 (TK-10 renal) of 27.3 nM. The TGI (TK-10 renal) was 85.3 nM, the GI50 (HOP-92 NSCLC) was 12.2 nM and the TGI (HOP-92 NSCLC) was 25.4 nM. For the same compound, the GI50 (LOX IMVI melanoma) was < 10 nM, the TGI (LOX IMVI melanoma) was < 10 nM and the GI50 (HOP-62 NSCLC) was < 10 nM. The TGI (HOP-62 NSCLC) was 11.4 nM, the GI50 (MDA-MB-231 breast) was < 10 nM and the TGI (MDA-MB-231 breast) was 23.4 nM. The GI50 (MALME-3M melanoma) was < 10 nM and the TGI (MALME-3M melanoma) was 21.5 nM.

From PubChem BioAssay (NCI)
